Some test systems named below: UO-31 renal; MCF7 breast; SF-295 CNS; NCI-H522 lung; PC-3 prostate; A549 NSCLC; HS 578T breast; BT-549 breast; OVCAR-8 ovarian; TK-10 renal.
Holding throughout (assay): DTP human tumour cell line panel, 48 h

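96-well plates; 48 h exposure; 5 concentrations. Endpoints by linear interpolation between flanking doses. Not reached: highest tested concentration assigned. At the GI50, growth is halved. TGI is the concentration that stops growth completely.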

One may read the GI50 as the concentration giving 50% growth inhibition. By TGI is commonly meant the concentration at which net growth stops. A lower TGI goes with more potent growth arrest. `N#CC1=C(N)Oc2c(sc3c(Br)cccc23)C1c1ccc([N+](=O)[O-])cc1` (stereo not drawn): the GI50 with UO-31 renal is 0.126 µM; in the assay with MCF7 breast, 0.151 µM; in the assay with SF-295 CNS, 0.0417 µM; in the assay on NCI-H522 lung, 0.0216 µM; with PC-3 prostate, 0.11 µM; in the assay with A549 NSCLC, 0.177 µM. Also, the GI50 is 0.0774 µM in the assay on HS 578T breast, 0.319 µM in the assay on BT-549 breast, 0.227 µM in the assay with OVCAR-8 ovarian and 2.32 µM with TK-10 renal. The TGI with UO-31 renal was found to be 14.5 µM; in the assay with MCF7 breast, 11.6 µM; in the assay with SF-295 CNS, 11.1 µM; in the assay with NCI-H522 lung, 0.616 µM; in the assay with PC-3 prostate it was 13.6 µM; in the assay on A549 NSCLC, 13.5 µM. Also, the TGI in the assay on HS 578T breast turned out to be 16.4 µM; with BT-549 breast, 5.31 µM; with OVCAR-8 ovarian, 12.2 µM; in the assay with TK-10 renal, 20 µM.

On to `CN1C(=O)C(c2c[nH]c3ccccc23)=C(c2c[nH]c3ccccc23)C1=O`, for which the GI50 in the assay on UO-31 renal was 2.64 µM; with MCF7 breast, 5.24 µM; in the assay with SF-295 CNS, 4.48 µM; with NCI-H522 lung, 4.69 µM; with PC-3 prostate, 4.46 µM; in the assay on A549 NSCLC, 7.08 µM. The GI50 was 5.18 µM with HS 578T breast, 8.14 µM in the assay on BT-549 breast, 7.67 µM with OVCAR-8 ovarian and 12.5 µM in the assay with TK-10 renal. Besides, the TGI in the assay with UO-31 renal was greater than 20.6 µM; in the assay with MCF7 breast, greater than 24.1 µM; with SF-295 CNS, 11.8 µM; in the assay with NCI-H522 lung it was 12.5 µM; with PC-3 prostate, greater than 25 µM; in the assay on A549 NSCLC, greater than 25 µM. Also, the TGI in the assay with HS 578T breast was 21.3 µM; in the assay on BT-549 breast it was 24.7 µM; with OVCAR-8 ovarian it was greater than 25 µM; with TK-10 renal, greater than 25 µM.

For `Nc1c(C(=O)Nc2cccc(Cl)c2)sc2nc3c(cc12)C(=O)CCC3`, the TGI in the assay with UO-31 renal was greater than 100 µM; with MCF7 breast it was greater than 100 µM; with NCI-H522 lung, 0.788 µM; in the assay with PC-3 prostate it was greater than 100 µM; with A549 NSCLC, greater than 100 µM; in the assay with HS 578T breast, greater than 100 µM. Besides, the TGI with BT-549 breast, with OVCAR-8 ovarian and in the assay on TK-10 renal was greater than 100 µM in each case. Further, the 50% growth inhibitory concentration (GI50) in the assay on MCF7 breast is 0.201 µM; with SF-295 CNS, 0.243 µM; in the assay with NCI-H522 lung, 0.19 µM; with PC-3 prostate, 0.528 µM; in the assay on A549 NSCLC, 0.42 µM; with HS 578T breast it was 0.422 µM. Further, the GI50 is 0.948 µM with BT-549 breast, greater than 41.3 µM in the assay with OVCAR-8 ovarian and 36.7 µM with TK-10 renal.

On to `COc1ccc(-c2nc3sc(-c4cc(OC)c(OC)c(OC)c4)nn3c2/C=C2/C(=O)Nc3ccc(F)cc32)cc1`, for which the GI50 in the assay on UO-31 renal was 15 µM; in the assay with MCF7 breast, 1.66 µM; in the assay on SF-295 CNS, 3 µM; in the assay with NCI-H522 lung, 5.44 µM; in the assay on PC-3 prostate, 24.7 µM; in the assay on A549 NSCLC, 2.13 µM. For the same compound, the GI50 in the assay on HS 578T breast was 16.2 µM; in the assay with BT-549 breast, 14.9 µM; with OVCAR-8 ovarian, 5.34 µM; in the assay with TK-10 renal, 2.26 µM. The TGI amounted to 29.7 µM in the assay on UO-31 renal; 6.32 µM in the assay on MCF7 breast; 10.8 µM in the assay on SF-295 CNS; 18 µM in the assay on NCI-H522 lung; 65.3 µM in the assay with PC-3 prostate; 5.26 µM in the assay on A549 NSCLC. Also, the TGI in the assay on HS 578T breast was greater than 100 µM; in the assay on BT-549 breast it was 74.6 µM; with OVCAR-8 ovarian, greater than 100 µM; in the assay with TK-10 renal, 4.23 µM.

`Nc1ccc(/C=C/c2ccc3ncccc3c2)cc1`: the GI50 was 2.32 µM in the assay with UO-31 renal; greater than 100 µM in the assay on MCF7 breast; 70.3 µM with SF-295 CNS; 19.9 µM in the assay on NCI-H522 lung; 7.29 µM with PC-3 prostate; greater than 100 µM in the assay with A549 NSCLC. The GI50 with HS 578T breast was greater than 100 µM; in the assay on BT-549 breast, 5.29 µM; in the assay on OVCAR-8 ovarian, greater than 100 µM; in the assay on TK-10 renal, 86.5 µM. Further, the TGI with UO-31 renal, with MCF7 breast, in the assay on SF-295 CNS, with NCI-H522 lung, in the assay with PC-3 prostate and with A549 NSCLC was greater than 100 µM each time. The concentration for total growth inhibition (TGI) in the assay with HS 578T breast, with BT-549 breast, with OVCAR-8 ovarian and with TK-10 renal was greater than 100 µM each time.

Turning to `O=[N+]([O-])c1ccc(C2=NCCO2)cc1`, the GI50 with UO-31 renal, with MCF7 breast, in the assay with SF-295 CNS, in the assay with NCI-H522 lung, with PC-3 prostate and in the assay on A549 NSCLC was greater than 100 µM in each case. Also, the GI50 in the assay with HS 578T breast, in the assay with BT-549 breast, in the assay on OVCAR-8 ovarian and in the assay with TK-10 renal was greater than 100 µM in each case. Further, the total growth inhibition concentration (TGI) in the assay with UO-31 renal, with MCF7 breast, in the assay on SF-295 CNS, with NCI-H522 lung, in the assay on PC-3 prostate and with A549 NSCLC was greater than 100 µM in each case. Further, the TGI in the assay with HS 578T breast, with BT-549 breast, with OVCAR-8 ovarian and in the assay with TK-10 renal was greater than 100 µM throughout.

As to `CCOC(=O)c1noc2c1CCc1c-2cn(Cc2ccc(OC)cc2)c1-c1cc(OC)c(OC)c(OC)c1`, the GI50 with UO-31 renal was 3.44 µM; with MCF7 breast it was 0.348 µM; in the assay on SF-295 CNS, 3.02 µM; with NCI-H522 lung it was 0.369 µM; in the assay on PC-3 prostate, 2.9 µM; in the assay on A549 NSCLC it was 3.8 µM. The GI50 was 2.99 µM in the assay with HS 578T breast, 1.47 µM with BT-549 breast, 3.04 µM in the assay on OVCAR-8 ovarian and greater than 100 µM with TK-10 renal. In addition, the TGI in the assay with UO-31 renal, in the assay with MCF7 breast, in the assay with SF-295 CNS, with NCI-H522 lung, in the assay with PC-3 prostate and with A549 NSCLC was greater than 100 µM each time. Also, the TGI with HS 578T breast is greater than 100 µM; with BT-549 breast, 35.1 µM; in the assay on OVCAR-8 ovarian, greater than 100 µM; with TK-10 renal it was greater than 100 µM.
